Experimental data from patent US12365643B2, “Phenoxy carboxylic acid compounds and medical uses thereof” (QINGDAO RISING BIOTECHNOLOGY CO., LTD, priority 2018, dated 2025).

What was measured:
NF-κB = NF-κB luciferase reporter gene transcriptional activity in SW480 cells; format: cell-based, human; conditions: 50 μM, 6 hours, SW480 stably transfected (FIG. 3)
Protocol: (§1) NF-κB was the most important inflammatory signal pathway. SW480 human colon cancer cells stably transfected with a luciferase reporter gene driven by NF-κB were used to determine the effects of the compound of the present application and the control drug gemfibrozil on NF-κB transcriptional activity, which comprised the following steps. • (1) Cells stably transfected with NF-κB Luc were cultivated to exponential growth, inoculated at a culture medium concentration of 1×10^5/[…] in a 24-well plate, and cultured for 24 hours, the medium was discarded, and the test compound or gemfibrozil formulated with serum-free medium at 50 μM were added to the 24-well plate and incubation was continued for 6 hours. After washing once with 200 μL of PBS, 100 μL of reporter gene cell lysis buffer was added, the cells were lysed on ice for 10 minutes, and the cell lysate was collected by pipetting. • (2) After centrifugation was performed at 8000 rpm and 4° C. for 10 min, the supernatant was pipetted for fluorescence assay. • (3) The measurement gap time of chemiluminescence analyzer was set to 2 s and the measurement time was set to 10 s. Automatic sample injection was adopted, 50 μL of luciferase assay reagent was added to each well. The reporter gene cell lysis buffer was used as a blank control. • (4) After centrifugation, the supernatant was taken, and the BCA method was used to determine the protein concentration so as to normalize the reporter gene results.

phosphorylated IRS-1 = assay: Phosphorylated IRS-1 level by Western blotting in HepG2; format: cell-based, human; conditions: 1 μM, 24 hours, HepG2, Western blotting (FIG. 6C)
From the text: (§2) Carnitine palmitoyltransferase (CPT1α) is a rate-limiting enzyme of fatty acid oxidation. When the body or tissues are lacking in energy, CPT1α catalyzes the entry of fatty acids into mitochondria for […], and at the same time, CPT1α is also involved in the regulation of fatty acid-induced insulin resistance and inflammation. Protein kinase B/glycogen synthase kinase 3β (AKT/GSK3β) signaling pathway and insulin receptor substrate 1 (IRS-1) are key signaling pathways that regulate glucose metabolism in response to insulin signal. Therefore, by determining the effects of compounds on the CPT1α protein level and the AKT, GSK3β and IRS-1 protein phosphorylation levels, it is possible to evaluate the regulatory effects of the compounds on glycolipid metabolism.
(§3) After human liver cancer cells HepG2 were incubated with the compound of the present application or the control drug at 1 μM for 24 hours, the CPT1α protein level and the AKT, GSK3β and IRS-1 phosphorylated protein levels in the cells were determined by Western blotting; after gray-scale scanning by using Image J15.0.1, normalization was performed by using β-tubulin protein level as internal control, and the quantitative analysis results were shown in FIG. 6.

[1] = test system: RAW264.7 mouse macrophages; assay: Determination of NO generation induced by LPS; format: cell-based; conditions: 10 μM, 1 μg/mL LPS, 24 hours, RAW264.7 (FIG. 2)
Protocol: The results are expressed as the multiple of the NO content in the cell culture supernatant of the administration group (10 μM) as compared with that in the cell culture supernatant of the control group (DMSO group), in which compared with the control group, *P<0.05, **P<0.01, ***P<0.001.
NO is a reactive nitrogen species (RNS) and an important gas signal molecule. Macrophages could convert arginine into NO which participated in the body's inflammatory response. Therefore, determination of inhibitory activity of a drug on NO generation was one of the classic methods to evaluate drug's anti-inflammatory ability. RAW264.7 cells at exponential growth phase were inoculated into a 96-well plate at 1×10^4 cells/200 μL. well of medium. After adherence, the medium was discarded, and the cells were subjected to drug treatments. Normal group (serum-free medium), LPS model group (serum-free medium containing 1 μg/mL LPS), LPS+drug group (serum-free medium containing 1 μg/mL LPS, 10 μM gemfibrozil or the compound of the present application) were established, and 3 repeated wells were set for each group. After 24 hours incubation in incubator, cell supernatant of each well was collected and assay was performed according to the instructions of NO determination kit (Nanjing Jiancheng). The absorbance value of each well at wavelength of 540 nm was read and NO content was calculated.

PPARγ = PPARγ mRNA expression by real-time quantitative PCR in HepG2; format: cell-based, human; conditions: 1 μM, 6 hours, HepG2 (FIG. 5B)
From the text: (§4) Peroxisome proliferation factor activated receptor (PPAR) is an important nuclear receptor that regulates glycolipid metabolism, including three subtypes: α, β/δ and γ. Peroxisome proliferator-activated receptor γ coactivator 1α (PGC-1α) is its auxiliary transcriptional activator. Acyl-CoA oxidase 1 (ACOX1) is the first rate-limiting enzyme for fatty acid β oxidation. Fatty acid binding protein 1 (FABP1) is highly expressed in liver, and can bind fatty acid, heme and other molecules to reduce their toxicity and damage. Up-regulating the expression level of these genes helps to improve the body's metabolism, and their agonists are an important class of anti-metabolic drugs. After the compound of the present application (1 μM) and the control drug gemfibrozil (1 μM) were incubated with human liver cancer cells HepG2 for 6 hours, real-time fluorescent quantitative PCR method was used to determine the relative expression of mRNA of related genes in the cells.
(§5) The company which synthesized the primers was Suzhou Hongxun Biotechnology Co., Ltd. Tranzol reagent (Tranzol total RNA extraction reagent, TransGen Biotech) was used to extract total RNA from tissues. 5× All-In-One RT MasterMix reverse transcription kit (Abcam, USA) and real-time quantitative PCR Master Mix (Aidlab Biotechnologies Co., Ltd) were used. Bio-Rad CFX Connect™ Real-Time PCR Detection System for qPCR was used, and 2^−ΔΔCT method was used for data analysis. The expression level of mRNA in the normal control group was set to 1, and the relative expression level of mRNA in the administration group was calculated, so as to confirm whether the active compound affected the PPAR pathway, thereby further regulating lipid metabolism.

db/db mice = assay: Diabetes mellitus model (db/db mice); format: in vivo, mouse; conditions: intragastric once a day for 28 days, 50 mg/kg (pioglitazone 6 mg/kg)
From the text: Animal model: C57BL/KsJ-leprdb/leprdb diabetic (db/db) mice were widely used as animal models of type 2 diabetes mellitus, in which spontaneous mutations of leptin receptor (Leptin receptor, Lepr) caused extreme obesity, polyphagia, diabetes and polyuria. In this experiment, db/db mice (purchased from the Department of Animals, Health Science Center of Peking University) were selected. In the experiment, 28 db/db mice were used, and the animals with blood glucose of about 7-13 mmol/L were selected. […] Intragastric administration was adopted with an administration volume of 10 ml/kg. […] The administration was performed once a day for 28 consecutive days. From the day of oral administration, the physiological changes of the animals were observed every day. Blood glucose was measured every 3 days (Roche blood glucose meter) and blood glucose difference (Δ) was calculated by the following formula: blood glucose difference (Δ)=the blood glucose of the day—the initial blood glucose (the initial blood glucose difference was zero). For mice in each experimental group, blood was collected, serum was separated, and liver was taken for wet-weight measurement after necropsy; liver tissue was taken and fixed for pathological examination, H.E. staining and oil red O staining (Wuhan Zishan Biotechnology Co., Ltd.) were performed, and mouse liver lesions were observed under light microscope; routine examination of blood was performed by Animal Laboratory Department, Health Science Center of Peking University to measure the following indexes: white blood cell count (WBC), red blood cell count (RBC), lymphocyte count (LY), platelet (PLT) and so on; biochemical laboratory examination of blood was performed by Laboratory Medicine, Third Hospital, Peking University to measure the following indexes: triglycerides (TG), total cholesterol (T-CHO), high-density lipoprotein cholesterol (HDL-C), low-density lipoprotein cholesterol (LDL-C) and so on.

[2] = test system: antioxidant response element (ARE); assay: ARE luciferase reporter gene activity in HepG2 cells; format: cell-based, human; conditions: 50 μM, HepG2 stably transfected (FIG. 4)
Protocol: as §1
In this experimental example, the luciferase activity in HepG2 human liver cancer cells stably transfected with a luciferase reporter gene driven by antioxidant response element (ARE) was determined to evaluate the regulatory effects of the compound of the present application and gemfibrozil on the transcriptional activity of transcription factor Nrf2 and the cellular oxidative stress response signals, in which the operation process of the reporter gene assay was the same as that of Experimental Example 2.2.

PGC1α = PGC1α mRNA expression by real-time quantitative PCR in HepG2; format: cell-based, human; conditions: 1 μM, 6 hours, HepG2 (FIG. 5C)
From the text: as §4, §5

CPT1α = CPT1α protein level by Western blotting in HepG2; format: cell-based, human; conditions: 1 μM, 24 hours, HepG2, Western blotting (FIG. 6A)
From the text: as §2, §3

| SMILES | activity of NF-κB reporter gene (NF-κB) | phosphorylation level of IRS-1 (phosphorylated IRS-1) | NO generation induced by LPS [1] | ARE reporter gene activity [2] | also measured |
| --- | --- | --- | --- | --- | --- |
| Cc1ccc(C)c(OCCCC(C)(C)C(=O)O)c1Cl [BJMU-209, 5-(2-chloro-3,6-dimethylphenoxy)-2,2-dimethylpentanoic acid] | could significantly inhibit the activity of NF-κB reporter gene | significantly increased the phosphorylation level of IRS-1 |  |  |  |
| Cc1cc(OCCC(C)(C)C(=O)O)c(C)cc1Br [BJMU-111, 4-(4-bromo-2,5-dimethylphenoxy)-2,2-dimethylbutanoic acid] |  |  | could inhibit NO generation |  |  |
| Cc1cc(OCCCC(C)(C)C#N)c(C)cc1Br [BJMU-309, 5-(4-bromo-2,5-dimethylphenoxy)-2,2-dimethylpentanenitrile] | could significantly inhibit the activity of NF-κB reporter gene | significantly increased the phosphorylation level of IRS-1 |  |  | PPARγ mRNA expression (PPARγ): significantly induced PPARγ mRNA expression |
| CCc1ccc(CCOc2ccc(CC3SC(=O)NC3=O)cc2)nc1 (centres unmarked) [Pioglitazone, pioglitazone] |  |  |  |  | AHDL (high density lipoprotein) (db/db mice): 1.65 ± 0.29 mmol/L; ALDL (low density lipoprotein) (db/db mice): 0.38 ± 0.03 mmol/L; ALT (db/db mice): 225.43 ± 79.31 U/L; AST (db/db mice): 212.79 ± 91.2 U/L; CHOL (total cholesterol) (db/db mice): 3.45 ± 0.26 mmol/L; CK (db/db mice): 1482.86 ± 707.74 U/L; CREA (db/db mice): 12 ± 3.91 µmol/L; TGL (triglycerides) (db/db mice): 2.17 ± 0.61 mmol/L |
| CCC(C)(CCCOc1cc(C)c(Br)cc1C)C(=O)O (centres unmarked) [BJMU-401, 5-(4-bromo-2,5-dimethylphenoxy)-2-ethyl-2-methylpentanoic acid] |  |  | could inhibit NO generation | could significantly activate the ARE reporter gene activity |  |
| Cc1cc(Br)c(C)c(I)c1OCCCC(C)(C)C(=O)O [BJMU-413, 5-(4-bromo-2-iodo-3,6-dimethylphenoxy)-2,2-dimethylpentanoic acid] |  |  | could inhibit NO generation |  |  |
| Cc1cc(Br)c(C)c(O)c1OCCCC(C)(C)C(=O)O [BJMU-415, 5-(4-bromo-2-hydroxy-3,6-dimethylphenoxy)-2,2-dimethylpentanoic acid] | could significantly inhibit the activity of NF-κB reporter gene | significantly increased the phosphorylation level of IRS-1 | could inhibit NO generation | could significantly activate the ARE reporter gene activity | PPARγ mRNA expression (PPARγ): significantly induced PPARγ mRNA expression; PGC1α mRNA expression (PGC1α): significantly induced PGC1α mRNA expression; CPT1α protein level (CPT1α): significantly increased CPT1α protein level |
| Cc1cc(OCCCCC(C)(C)C(=O)O)c(C)cc1Br [BJMU-403, 6-(4-bromo-2,5-dimethylphenoxy)-2,2-dimethylhexanoic acid] |  |  | could inhibit NO generation | could significantly activate the ARE reporter gene activity |  |
| COc1cc(Br)c(C)cc1OCCCC(C)(C)C(=O)O [BJMU-412, 5-(4-bromo-2-methoxy-5-methylphenoxy)-2,2-dimethylpentanoic acid] |  | significantly increased the phosphorylation level of IRS-1 |  | could significantly activate the ARE reporter gene activity | PGC1α mRNA expression (PGC1α): significantly induced PGC1α mRNA expression |
| Cc1cc(OCCCC(C)(C)C(=O)O)c(C)c(O)c1Br [BJMU-416, 5-(4-bromo-3-hydroxy-2,5-dimethylphenoxy)-2,2-dimethylpentanoic acid] |  | significantly increased the phosphorylation level of IRS-1 |  | could significantly activate the ARE reporter gene activity |  |
| Cc1cc(OCCCC(C)(C)C(=O)O)c(C)c(C)c1Br [BJMU-315, 5-(4-bromo-2,3,5-trimethylphenoxy)-2,2-dimethylpentanoic acid] | could significantly inhibit the activity of NF-κB reporter gene |  |  |  |  |
